From patent US11679082B2, “Therapeutic constructs for co-delivery of mitotic kinase inhibitor and immune checkpoint inhibitor” (Oregon Health & Science University, priority 2019, dated 2023)

How the values were obtained:
A549 = assay: Cell cycle arrest in G2/M phase in A549; assay type: cell-based, human; settings: A549, 72 hr post treatment; siRNA 50 nM, BI 2536 10 nM
Protocol: FIGS. 2A-2D. Effects of siRNA against mitotic regulator PLK1 (siPLK1) on non-small-cell lung carcinoma (NSCLC) cell lines (A549 and H460). (FIG. 2A) 48-hr PLK1 mRNA knockdown (HPRT used as house-keeping gene) and (FIG. 2B) 72-hr PLK1 protein reduction at 50 nM siRNA dose. (FIG. 2C) 4-day cell viability at 30 nM siRNA dose. (FIG. 2D) Cell cycle arrest increase in G2/M phase in A549 72 hr post treatment. Antibody (cetuximab) conjugated NP was used to deliver the siPLK1 (C-siPLK1-NP) or scrambled siRNA control (C-siSCR-NP) at 50 nM siRNA BI 2536 (a PLK1 inhibitor) was used as a drug benchmark at 10 nM. Data presented as mean±SD from independent duplicates (10,000 events per sample); ****P<0.0001 vs. untreat control. Unless specified otherwise, “NP” denotes mesoporous silica nanoparticles coated with cross-linked PEI and PEG, as described in Ngamcherdtrakul et al., Advanced Functional Materials, 25(18):2646-2659, 2015 and U.S. Patent Application Publication No. 2017/0173169.

PD-L1 = PD-L1 surface expression of LLC-JSP cells by flow cytometry; assay type: cell-based, mouse; settings: 500 ng/ml inhibitor
From the text: FIGS. 3A-3C. […] (FIG. 3A) PLK1 and PD-L1 mRNA expression in A549 (human NSCLC) at 48 hr post treatment with PLK1 siRNA (siPLK1) or scrambled siRNA (siSCR) normalized to HPRT housekeeping gene. Data presented as mean±SD from triplicates; ****P<0.0001. (FIG. 3B) PD-L1 surface expression of A549 ([…]) and LLC-JSP (a mouse NSCLC, FIG. 3C) at 72 hr post treatments assessed by flow cytometry (10,000 events per sample). Mouse siPLK1 seq. […] (SEQ ID NO: 1); Human siPLK1 seq. […] (SEQ ID NO: 2).
FIGS. 4A-4C Treatment effects of mitotic kinase inhibitors on (A) 3-day viability of LLC-JSP cells, (B) PD-L1 expression levels of surviving cells post treatment with 500 ng/ml of volasertib, alisertib, or AZD7762 as determined by flow cytometry and (C) their quantification.
FIGS. 6A-6D Nanoparticle delivery of PLK1 inhibitor volasertib (iPLK1-NP) to mouse NSCLC cells. (FIG. 6A) Schematic of synthesis of iPLK1-NP. (FIG. 6B) Hydrodynamic size of NP (with no inhibitor) and iPLK1-NP measured with Zetasizer. (FIG. 6C) Viability of LLC-JSP cells treated with volasertib (in 1% DMSO/PBS), iPLK1-NP (in PBS), or 1% DMSO/PBS for 4 days. Data presented as mean±SD from 4 independent samples; ****P<0.0001. (FIG. 6D) PD-L1 surface expression of LLC-JSP cells treated with PBS or iPLK1-NP (42 μg/ml NP, 210 ng/ml volasertib) for 3 days.
FIGS. 7A-7E. Nanoparticle for co-delivery of PLK1 inhibitor (iPLK1) and PD-L1 antibody (p-iPLK1-NP). (FIG. 7A) Schematic and (FIG. 7B) hydrodynamic size of p-iPLK1-NP containing 4 wt. % of PD-L1 antibody and 0.5 wt. % of PLK1 inhibitor. (FIG. 7C) 5-day cell viability of LLC-JSP cells treated with iPLK1-NP or p-iPLK1-NP. Data presented as mean±SD from 4 independent samples; ns—not significant. PD-L1 surface expression assessed by flow cytometry after LLC-JSP cells were incubated with various treatments as specified for (FIG. 7D) 2 hrs and (FIG. 7E) 2 days. […]
Flow cytometry: Cells (100K cells/well) were plated in 6 well plates overnight and treated with indicated treatments the next day. […] Cells were then washed with FACs buffer and analyzed with Guava (50,000 events per sample).

LLC-JSP cells = assay: Cell viability of LLC-JSP cells (Cell Titer Glo); assay type: cell-based, mouse; settings: 4 days, dose-dependent
Protocol: (FIG. 14B) Treatment effect of ADC versus free alisertib of equivalent dose on viability of LLC-JSP cells (2-days). […] (FIG. 14C) Effect of PD-L1 on the viability of LLC-JSP cells.
Cell viability after treatments: Cells (1500/well) were plated in white flat bottom 96 well plate overnight. The following day, cells were treated with indicated treatments and media was changed 24 hr post treatment. 3-5 day post treatment, cell viability was assessed using Cell Titer Glo assay (Promega) following manufacturer's instructions. Luminescence was read with Tecan plate reader.

acute myeloid leukemia = settings: phase III; cited from earlier work
lung cancer = settings: phase II, 300 mg once every 3 weeks; cited from earlier work

Compound: CC[C@@H]1C(=O)N(C)c2cnc(Nc3ccc(C(=O)NC4CCN(C)CC4)cc3OC)nc2N1C1CCCC1 [B12536]
- cell cycle arrest in G2/M (A549): G2/M growth arrest

Compound: COc1cc(Nc2ncc3c(n2)-c2ccc(Cl)cc2C(c2c(F)cccc2OC)=NC3)ccc1C(=O)O [alisertib]
- surface PD-L1 level of surviving cells (PD-L1): upregulated surface PD-L1 level

Compound: CC[C@@H]1C(=O)N(C)c2cnc(Nc3ccc(C(=O)N[C@H]4CC[C@H](N5CCN(CC6CC6)CC5)CC4)cc3OC)nc2N1C(C)C [volasertib]
- surface PD-L1 level of surviving cells (PD-L1): upregulated surface PD-L1 level
- viability of LLC-JSP cells vs vehicle (LLC-JSP cells): significantly reduced cell viability
- primary endpoint of objective response (acute myeloid leukemia): failed to meet primary endpoint of objective response
- response as monotherapy (lung cancer): lack of response

Compound: NC(=O)Nc1cc(-c2cccc(F)c2)sc1C(=O)N[C@H]1CCCNC1 [AZD7762]
- surface PD-L1 level of surviving cells (PD-L1): upregulated surface PD-L1 level
